Key:
293T cells [1] = assay: RT-PCR analysis of alternative pre-mRNA splicing in 293T cells; assay type: cell-based, human
Method: Cells (293T, Huh7, and HepG2) were cultured in Dulbecco's modified Eagle's medium (DMEM) containing 10% fetal bovine serum (FBS; Hyclone) supplemented with 1% penicillin and streptomycin. […] The 293T cells were transfected in 6-well plates with siRNAs (Bioneer) at a final concentration of 100 nM using Lipofectamine RNAiMax (Invitrogen) according to the manufacturer's instructions.
(§1) To analyze the effect of compounds on pre-mRNA splicing, 293T, Huh7, and HepG2 cells were treated with the indicated concentrations. Total RNAs were extracted using the TRIzol reagent (Invitrogen) followed by cDNA synthesis using the Omniscript RT kit (Qiagen) and an oligo-dT primer. PCR was performed at 95°C for 30 s, 55°C for 30 s, and 72°C for 1 min for 35 cycles using GoTaq Green Master Mix (Promega). Quantitative real-time PCR analysis was performed using the BioRad IQ SYBR Green Supermix. All gene expression experiments were performed independently at least twice.
(§2) The cDNA was synthesized and further processed for exon array as described in Materials and Methods. All experiments were performed three times, and representative heat maps of selected transcripts from the exon arrays are shown. Selected exons for each mRNA are highlighted with black underlines. (B) RT-PCR analysis was performed for the ELL2, SPAST, QRSL1, PRPSAP2, CPEB1, USP38, TRIP4, CTDSPL2, WDFY1 and ZCCHC2 genes with the same RNA used for the exon arrays. The exonic structure of the RT-PCR products and the exonic location of PCR primers are indicated with tandem rectangles and arrowheads, respectively. PCR products were quantified using ImageJ software, and the ratios of skipped product (skipped/total PCR product) were calculated.
Total levels of AKT were also monitored as a control. hnRNP A1 was used as a loading control. (B) Alternatively spliced CK2 α′, ELL2, CPEB1, PRPSAP2, and QRSL1 mRNAs were examined by RT-PCR. PCR products of normal and alternatively spliced isoforms are denoted by black arrowheads. An extra PCR product of the QRSL1 gene appeared in TBB-treated samples and is denoted by an asterisk. All experiments were performed twice, and representative data for each are presented.

[2] = test system: CK2-mediated phosphorylation of AKT at S129; assay: Western blot of AKT(S129) phosphorylation (CK2-specific site) in 293T cells; assay type: cell-based, human; settings: 12 hours
[3] = test system: SR protein phosphorylation; assay: Western blot of phosphorylated SR proteins (mAb 1H4) in 293T cells; assay type: cell-based, human; settings: for alteration of SR protein phosphorylation: 100 µM, 12 hour, Figure S5
recombinant human Clk3 = recombinant human Clk3 (Homo sapiens, UniProt P49761); assay: In vitro kinase assay (Life Technologies), Clk3; assay type: biochemical
recombinant human SRPK1 = recombinant human SRPK1 (Homo sapiens, UniProt Q96SB4); assay: In vitro kinase assay (Life Technologies), SRPK1; assay type: biochemical; settings: two independent assays
recombinant human SRPK2 = recombinant human SRPK2 (Homo sapiens, UniProt P78362); assay: In vitro kinase assay (Life Technologies), SRPK2; assay type: biochemical; settings: two independent assays
[4] = target: Clks (Clk1, Clk2, and Clk3); assay: In vitro kinase assays, Clk family as a whole; assay type: biochemical, human; settings: range over Clk1, Clk2, Clk3; read-out: IC50 on Clks (all three Clks, Clk1-3)
SRPKs (SRPK1 and SRPK2) = assay: In vitro kinase assays, SRPK family as a whole; assay type: biochemical, human
Clks = assay: In vitro kinase assays (Millipore), CX-4945 compared with TG-003 on Clks; assay type: biochemical, human; settings: Figure S6
Method: All experiments were performed twice.

293T cells [5] = assay: Affymetrix exon array, transcriptome-wide splicing in 293T cells; assay type: cell-based, human; settings: 10 µM, 12 hours
Method: The fragmented and end-labeled single-stranded cDNAs were prepared and hybridized to Affymetrix-GeneChip Human Exon 1.0 ST arrays (Affymetrix). Affymetrix Expression Console Software was used to perform quality assessment. Affymetrix exon array data was analyzed using GeneSpring 12.6 inclusive of GX (Agilent Technologies). Three independent experimental samples were examined.
Transcriptome analysis with the Affymetrix GeneChip Human Exon 1.0 ST Array, which contains multiple probes per exon, allowed us to search for variations at the exon level. […] Further analysis characterized the 8,968 affected exons into 1,555 included exons and 7,413 skipped exons. To validate this observation, we randomly chose 15 exons from those affected by more than 2-fold and examined alterations in alternative splicing using RT-PCR of the same total RNAs used in the exon array experiments. Representative mRNAs containing selected exons are illustrated by heat maps, and all of the selected exons were denoted by black underlines (Figure 2A). […] Different exons are commonly affected differentially by a stimulus or splicing inhibition, depending on cis-acting elements on exon/intron and activities of trans-acting factors.
as §2

Huh7 cells = assay: RT-PCR of Bcl-X and RON alternative splicing in Huh7 cells; assay type: cell-based, human; settings: 12 hours
Method: as §1

293T cells [6] = assay: Quantitative real-time PCR of CK2 α′ mRNA levels in 293T cells; assay type: cell-based, human; settings: qPCR, primers to exon 7, Figure S1
Method: as §1
Figure S1. […] Quantitative real-time PCR was performed with total RNA from DMSO- and CX-4945-treated 293T cells. The amount of normal CK2 α’ mRNA was measured using primers corresponding to exon 6, and the total amount of normal CK2 α’ mRNA and the smaller-sized CK2 α’ mRNA was measured using primers corresponding to exon 7. The values for DMSO-treated samples were set to 1, and the relative amounts were calculated. The average and SD values were determined from three independent experiments.

HepG2 cells = assay: Quantitative real-time PCR of gluconeogenic genes in HepG2 cells; settings: 12 hours
[7] = test system: Clk1 and Clk4 over Clk2 and Clk3; design: method as in PMID 15010457; settings: cited from earlier work

Chain of recombinant human SRPK1 (Q96SB4 whole entry): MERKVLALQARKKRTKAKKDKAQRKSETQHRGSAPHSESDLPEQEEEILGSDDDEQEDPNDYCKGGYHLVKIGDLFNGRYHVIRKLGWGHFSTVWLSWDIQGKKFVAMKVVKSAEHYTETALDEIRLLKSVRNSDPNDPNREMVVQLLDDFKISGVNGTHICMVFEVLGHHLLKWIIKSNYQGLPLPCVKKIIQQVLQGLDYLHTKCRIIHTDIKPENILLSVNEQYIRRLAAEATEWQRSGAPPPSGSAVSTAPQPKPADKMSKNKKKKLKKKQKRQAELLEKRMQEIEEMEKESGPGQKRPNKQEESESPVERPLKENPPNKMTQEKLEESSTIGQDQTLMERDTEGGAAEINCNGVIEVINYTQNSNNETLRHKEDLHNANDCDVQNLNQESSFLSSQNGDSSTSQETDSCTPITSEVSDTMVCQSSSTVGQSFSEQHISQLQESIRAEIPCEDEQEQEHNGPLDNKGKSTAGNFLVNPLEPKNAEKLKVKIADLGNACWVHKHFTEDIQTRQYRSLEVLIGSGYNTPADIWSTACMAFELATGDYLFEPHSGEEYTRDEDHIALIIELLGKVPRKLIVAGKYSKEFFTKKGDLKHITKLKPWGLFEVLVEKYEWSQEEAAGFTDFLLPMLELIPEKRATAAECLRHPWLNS
Chain of recombinant human SRPK2 (P78362 whole entry): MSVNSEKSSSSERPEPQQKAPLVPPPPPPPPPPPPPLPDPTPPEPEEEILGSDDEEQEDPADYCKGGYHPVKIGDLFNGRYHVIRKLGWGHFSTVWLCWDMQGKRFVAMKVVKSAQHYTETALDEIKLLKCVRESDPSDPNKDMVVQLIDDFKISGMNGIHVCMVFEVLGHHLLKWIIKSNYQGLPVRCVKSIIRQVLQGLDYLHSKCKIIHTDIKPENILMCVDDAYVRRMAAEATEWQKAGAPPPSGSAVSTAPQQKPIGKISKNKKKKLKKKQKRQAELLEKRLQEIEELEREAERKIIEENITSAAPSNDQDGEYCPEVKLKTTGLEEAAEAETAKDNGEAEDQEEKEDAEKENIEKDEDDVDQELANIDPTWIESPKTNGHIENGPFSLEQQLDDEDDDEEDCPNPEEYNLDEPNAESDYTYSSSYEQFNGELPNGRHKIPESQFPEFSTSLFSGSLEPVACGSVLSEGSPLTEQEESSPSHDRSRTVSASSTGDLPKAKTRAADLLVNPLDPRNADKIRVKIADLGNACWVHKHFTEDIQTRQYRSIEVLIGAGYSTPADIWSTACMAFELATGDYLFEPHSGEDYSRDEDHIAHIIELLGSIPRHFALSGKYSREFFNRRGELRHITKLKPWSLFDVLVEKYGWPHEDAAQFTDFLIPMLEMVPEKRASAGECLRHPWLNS
Chain of recombinant human Clk3 (P49761 whole entry): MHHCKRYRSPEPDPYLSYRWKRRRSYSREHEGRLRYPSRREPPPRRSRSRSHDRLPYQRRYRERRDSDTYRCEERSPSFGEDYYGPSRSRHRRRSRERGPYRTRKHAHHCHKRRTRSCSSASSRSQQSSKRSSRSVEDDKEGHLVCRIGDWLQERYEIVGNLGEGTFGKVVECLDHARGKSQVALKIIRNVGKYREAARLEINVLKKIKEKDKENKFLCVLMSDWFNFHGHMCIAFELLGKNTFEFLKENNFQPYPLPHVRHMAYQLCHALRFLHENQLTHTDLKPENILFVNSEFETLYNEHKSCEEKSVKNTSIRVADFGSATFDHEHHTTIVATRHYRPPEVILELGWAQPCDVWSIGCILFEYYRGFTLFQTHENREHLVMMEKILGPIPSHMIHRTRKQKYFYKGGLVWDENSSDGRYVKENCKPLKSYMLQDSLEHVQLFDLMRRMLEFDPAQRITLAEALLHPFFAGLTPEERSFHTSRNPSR

Brc1c(Br)c(Br)c2[nH]nnc2c1Br [TBB, 4,5,6,7-tetrabromobenzotriazole]
changes in alternative splicing of selected genes (CK2 α′, ELL2, CPEB1, PRPSAP2, QRSL1) (293T cells [1]; 100 µM, 12 hours): negligible effect
extra PCR product of QRSL1 (cryptic splicing, 3′ part of exon 11) (293T cells [1]; 100 µM, 12 hours): induced the appearance of an additional PCR product
CK2-mediated phosphorylation of AKT at S129 ([2]; 100 µM): efficiently blocked
alteration of SR protein phosphorylation [3]: did not induce the alteration

O=C(O)c1ccc2c(c1)nc(Nc1cccc(Cl)c1)c1ccncc12 [CX-4945]
IC50 (recombinant human Clk3): 90 nM
IC50 (recombinant human SRPK1): 1230 nM
IC50 (recombinant human SRPK2): 1110 nM
IC50 [4]: 3 to 90 nM
IC50 (SRPKs (SRPK1 and SRPK2)): > 1000 nM
overall efficacies on Clks compared with TG-003 (Clks): much stronger than those of TG-003
amount of PCR product corresponding to normal CK2 α′ (293T cells [1]; 10 µM, 12 hours, compared with DMSO): reduced
splicing of Clk1/Sty pre-mRNA (293T cells [1]; 12 hours, 293T): changes in splicing
time of appearance of new product CK2 α′△ (exon6-skipped) (293T cells [1]; time course following exposure, 293T): as early as 2 or 3
included exons among the affected exons (293T cells [5]): 1,555 exons
skipped exons among the affected exons (293T cells [5]): 7,413 exons
genes affected at the whole-transcript level (293T cells [5]; 82 out of 18,673 genes): 0.44%
CK2-mediated phosphorylation of AKT at S129 ([2]; 10 µM): efficiently blocked
regulatory efficacy on SR protein phosphorylation compared with TG-003 ([3]; 1 µM CX-4945 versus 10 µM TG-003, 1 hour): stronger than that of TG-003
levels of phosphorylated SRSF4, SRSF6, SRSF5, and SRSF1 ([3]; 1 and 10 µM, 1 hour): considerably decreased
phosphorylation of SRSF3 ([3]; 1 and 10 µM, 1 hour): not affected
upper band of phospho-SRSF6 (hyperphosphorylated SRSF6) ([3]; 1 and 10 µM, 1 hour): dramatically increased
dose dependence of effect on phosphorylation of SR proteins ([3]; 1 versus 10 µM, 1 hour): dose-dependent
normal alternative splicing of Bcl-X and RON pre-mRNAs (Huh7 cells): alteration of normal alternative splicing
total amount of normal CK2 α′ and smaller-sized CK2 α′ mRNA (293T cells [6]): not altered
G6Pase and PEPCK gene expression (HepG2 cells): induced

O=C(O)/C=C/c1cc(Br)c(Br)c(Br)c1Br [TBCA, tetrabromocinnamic acid]
changes in alternative splicing of selected genes (CK2 α′, ELL2, CPEB1, PRPSAP2, QRSL1) (293T cells [1]; 100 µM, 12 hours): negligible effect
CK2-mediated phosphorylation of AKT at S129 ([2]; 100 µM): efficiently blocked
alteration of SR protein phosphorylation [3]: did not induce the alteration

CCN1/C(=C/C(C)=O)Sc2ccc(OC)cc21 [TG-003]
preferential efficacy on Clk1 and Clk4 over Clk2 and Clk3 [7]: at least 5 fold

— publication PMC3990583 (PLoS ONE, 2014)
